Test results published in publication PMC6661809, “Lead optimization for promising monoamine oxidase inhibitor from eugenol for the treatment of neurological disorder: synthesis and in silico based study” (BMC Chemistry, 2019).

What was measured:
rat MAO-B [1] = system: rat MAO-B; set-up: method as in PMID 28771213; settings: Table 1, literature overview; cited from earlier work
rat MAO-A [2] = system: rat MAO-A; set-up: method as in PMID 28771213; settings: Table 1, literature overview; cited from earlier work
rat MAO-A [3] = settings: mitochondrial rat brain; cited from earlier work
[4] = Hydrogen peroxide scavenging (H2O2) assay; settings: Table 7, mean ± SEM, n = 3
Experimental: Hydrogen peroxide generally turns into water and oxygen and produces highly toxic hydroxyl radical that renders the damage to DNA and peroxidation of lipid. H2O2 scavenging ability of eugenol based derivatives was evaluated by method described by Nakano and colleagues with some alteration. The hydrogen peroxide solution (40 mM) was prepared in phosphate buffer (40 mM pH 7.4) and addition of several ranges of synthesized derivatives (05–80 μg/mL) was done into H2O2 solution (2 mL). The determination of H2O2 concentration was done by UV/Vis Epoch ELISA reader at 230 nm upon incubation of 10 min. Solution of phosphate buffer without H2O2 was noted as blank reading. The hydrogen peroxide percentage inhibition was estimated through the formula [(AH − AD)/AO] × 100, where AH is the absorbance of the control and AD is the absorbance of compounds/reference taken as 05–80 μg/mL L-ascorbic acid.

MAO B = target: MAO B; set-up: method as in PMID 21190052; settings: cited from earlier work
mice [5] = system: mice; set-up: method as in PMID 28771213; settings: cited from earlier work
[6] = Ferric reducing antioxidant power (FRAP) assay; settings: Table 9, mean ± SEM, n = 3;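 further: Ferrous-TPTZ reduction read as absorbance at 593 nm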
Experimental: The capacity of antioxidants to decrease ferric iron is measured by this method. The reaction of […] (TPTZ) and complex ferric iron yields ferrous form at low pH. […] This method was adopted from the reports of Benzie et al..

hMAO-B [7] = target: T1, hMAO-B (Homo sapiens, UniProt P27338); assay: Recombinant human MAO-B inhibition screening (Amplex Red, p-tyramine); type: biochemical; settings: p-tyramine substrate, mean SEM
T1 construct: purchased Sigma-Aldrich; host or cells: insect cells (BTI-TN-5B14) infected with recombinant baculovirus
T1 sequence (P27338 1-520): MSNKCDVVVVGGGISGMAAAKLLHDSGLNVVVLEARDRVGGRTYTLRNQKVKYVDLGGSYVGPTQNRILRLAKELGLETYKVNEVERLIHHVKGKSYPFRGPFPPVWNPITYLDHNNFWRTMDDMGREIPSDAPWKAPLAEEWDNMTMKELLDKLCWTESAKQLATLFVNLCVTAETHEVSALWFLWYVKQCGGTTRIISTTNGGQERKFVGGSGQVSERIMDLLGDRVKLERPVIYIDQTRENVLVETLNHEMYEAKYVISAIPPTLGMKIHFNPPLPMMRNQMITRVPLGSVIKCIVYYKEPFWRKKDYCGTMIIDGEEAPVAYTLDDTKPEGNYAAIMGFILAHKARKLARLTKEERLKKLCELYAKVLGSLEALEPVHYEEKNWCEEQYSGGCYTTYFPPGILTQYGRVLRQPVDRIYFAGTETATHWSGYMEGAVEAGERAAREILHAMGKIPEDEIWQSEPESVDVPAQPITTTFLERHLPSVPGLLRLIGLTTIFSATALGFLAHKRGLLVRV
Description: (§1) To evaluate IC50 values for the inhibition of human MAO-A and MAO-B by newly synthesized compounds the commercially available recombinant human enzymes expressed in insect cells were used (Sigma-Aldrich). The MAO inhibition assay was based on the method described by Anderson et al., 1993 and Chimenti et al. with some modifications. The Amplex Red MAO Kit tyramine (Sigma-Aldrich) affords a suitable fluorimetric method to evaluate MAO enzyme action of synthetic and natural compounds. In the assay, MAO reacts with p-tyramine, a common substrate for both MAO isoforms, ensuing in the production of H2O2, which is identified by a fluorimetric method (λex = 530/λem = 585 nm). Each test well contained 0.1 mL of sodium phosphate buffer (0.05 M, pH 7.4), a range of concentrations of the eugenol based derivatives or reference compounds along with recombinant hMAO-A or hMAO-B in appropriate quantity. After the preparation of this mixture the wells were subjected to incubation for 15 min at 37 °C, placed in the dark fluorimeter chamber. Once this incubation period over, the process was rendered by mixing 200 µM Amplex Red reagent (Sigma-Aldrich), 1 U/mL horseradish peroxidase (Sigma-Aldrich) and p-tyramine (Sigma-Aldrich). Subsequently, the formation of hydrogen peroxide exerted by MAO isoforms was quantified by using Amplex-Red reagent, a non-fluorescent probe that reacts with H2O2 in the existence of horse radish peroxidase to generate the fluorescent component resorufin. Moreover, the control analysis was calculated in the absence of compound and reference inhibitors. The probability of compounds to change the fluorescence produced in the reaction mix due to non-enzymatic inhibition was assessed by mixing titled compounds to solutions of single Amplex Red reagent in a sodium phosphate buffer. Data were processed in Microsoft Excel, to calculate IC50 values.

hMAO-B [8] = target: T1, hMAO-B; settings: eugenol from Rhizoma acori graminei; cited from earlier work
human MAO-A = target: human MAO-A; set-up: method as in PMID 21190052; settings: competitive inhibitor; cited from earlier work
DPPH scavenging activity = settings: Table 6, mean ± SEM, n = 3
Experimental: Solutions of synthesized compounds were set in ethanol/water (1:1) having 10 mM to 100 mM at a period of 10 mM. The 0.01% DPPH· stock solution was prepared in ethanol/water (1:1). Samples were prepared as 5 mL DPPH· solution was mixed with 5 mL L-ascorbic acid solution then shaken vigorously and kept in the dark. Corresponding blank sample were prepared and L-ascorbic acid was used as reference standard. […] The actual decrease in absorption induced by the test was compared with the positive controls. The IC50 values were calculated use the dose inhibition curve in linear range by plotting the extract concentration versus the corresponding scavenging effect through following equation [(ADR − APR)/AO] × 100. Where ADR is the absorbance prior to reaction and APR is the absorbance after reaction with DPPH·.

rat MAO-B [9] = settings: mitochondrial rat brain; cited from earlier work
mice [10] = system: mice; set-up: method as in PMID 21190052; settings: administered for 14 days; cited from earlier work
mice [11] = system: mice; set-up: method as in PMID 28771213; settings: repeated administration, dose-dependent; cited from earlier work
hMAO-A = target: T2, hMAO-A (Homo sapiens, UniProt P21397); assay: Recombinant human MAO-A inhibition screening (Amplex Red, p-tyramine); type: biochemical; settings: for Selectivity index: IC50 (MAO-A)/IC50 (MAO-B); for IC50: recombinant hMAO-A, p-tyramine substrate, mean SEM
T2 construct: purchased Sigma-Aldrich; host or cells: insect cells (BTI-TN-5B14) infected with recombinant baculovirus
T2 sequence (P21397 1-527): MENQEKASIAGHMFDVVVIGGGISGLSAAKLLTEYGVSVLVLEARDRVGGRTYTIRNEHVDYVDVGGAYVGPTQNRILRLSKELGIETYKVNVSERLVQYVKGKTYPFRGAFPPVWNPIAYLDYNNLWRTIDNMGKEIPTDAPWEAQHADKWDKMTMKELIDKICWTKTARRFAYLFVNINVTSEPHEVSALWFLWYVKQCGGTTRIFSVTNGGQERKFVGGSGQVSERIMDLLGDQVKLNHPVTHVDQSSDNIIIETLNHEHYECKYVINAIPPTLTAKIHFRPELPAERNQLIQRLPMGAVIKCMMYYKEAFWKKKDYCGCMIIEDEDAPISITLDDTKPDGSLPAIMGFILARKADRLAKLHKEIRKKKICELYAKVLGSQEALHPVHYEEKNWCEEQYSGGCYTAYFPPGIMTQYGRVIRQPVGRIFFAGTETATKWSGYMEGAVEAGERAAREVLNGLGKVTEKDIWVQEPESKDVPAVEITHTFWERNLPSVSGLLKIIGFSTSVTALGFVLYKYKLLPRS
Description: as §1

[12] = Nitric oxide scavenging activity; settings: Table 8, mean ± SEM, n = 3
Description: The generation of nitric oxide (NO·) on biological tissues is mediated by particular nitric oxide synthases enzyme that control the catabolism of the arginine to citrulline via creation of NO through a five electron oxidative reaction. At the physiological pH (7.2) in aqueous solution sodium nitroprusside decompose to produce NO·. Finally, NO· reacts with oxygen at underaerobic conditions and produces stable products (nitrate and nitrite), this amount can be determined by means of Griess reagent. The procedure for the nitric oxide scavenging activity was adopted from reports of Alam et al..

Swiss mouse = system: Swiss mouse; set-up: method as in PMID 28771213; settings: controls negative and positive (imipramine); cited from earlier work

Compound | IC50 (rat MAO-B [1]) | IC50 (rat MAO-A [2]) | Ki (rat MAO-A [3]) | H2O2 scavenging IC50 [4] | FRAP IC50 [6] | IC50 (hMAO-B [7]) | DPPH scavenging IC50 (DPPH scavenging activity) | Ki (rat MAO-B [9]) | Selectivity index (hMAO-A) | IC50 (hMAO-A) | Nitric oxide scavenging IC50 [12] | melting point | further results
CC1CCC(C(C)C)C(O)C1 (stereo not shown) [Menthol] | 37.4 ± 0.76 µM | 23.1 ± 0.35 µM |  |  |  |  |  |  |  |  |  |  | 
C=CCc1ccc(O)c(OC)c1 [Eugenol] | 24 ± 1.32 µM | 5.34 ± 0.065 µM | 25.7 µM | 9.980 ± 0.012 µg/mL | 10.627 ± 0.082 µg/mL | 13.3 ± 0.037 µM | 10.29 ± 0.011 µg/mL | 79.9 µM | 1.24 | 16.54 ± 0.045 µM | 11.724 ± 0.003 µg/mL |  | Ki (MAO B): 211 µM; LD50 (mice [5]): 4500 mg/kg; Ki (hMAO-B [8]): 15 µM; Ki (human MAO-A): 25 µM; Forced swim test (FST) score (mice [10]): significantly increased; Immobility in the FST and tail suspension test (TST) (mice [11]): decreased immobility
COc1ccc(C(C)=O)c(O)c1 [Paeonol] |  |  | 51.1 µM |  |  |  |  | 54.6 µM |  |  |  |  | 
COc1cc(C=O)ccc1O [Vanillin] | 45.34 ± 0.09 µM | 17.88 ± 0.16 µM |  |  |  |  |  |  |  |  |  |  | Observations in behavioral test (FST) (Swiss mouse): Controls: negative and positive (imipramine) The treatment reduced the spontaneous locomotion
C=CCc1ccc(OC(=O)/C=C\c2ccc(O)c(OC)c2)c(OC)c1 [Compound 16, (Z)-4-allyl-2-methoxyphenyl 3-(4-hydroxy-3-methoxyphenyl)acrylate] |  |  |  | 20.6 ± 0.856 µg/mL | 16.88 ± 0.099 µg/mL | 49.15 ± 0.011 µM | 27.70 ± 0.023 µg/mL |  | 0.14 | 7.348 ± 0.027 µM | 18.63 ± 0.654 µg/mL | 120 to 122 °C | 
C=CCc1ccc(O)c(-c2ccc(O)c(CC=C)c2)c1 [Honokiol] |  |  | 38.2 µM |  |  |  |  | 54.6 µM |  |  |  |  | 
C=CCc1ccc(OC(=O)c2ccccc2O)c(OC)c1 [Compound 13c, 4-allyl-2-methoxyphenyl 2-hydroxybenzoate] |  |  |  | 15.7 ± 0.784 µg/mL | 14.63 ± 0.007 µg/mL | 12.66 ± 0.021 µM | 16.04 ± 0.026 µg/mL |  | 1.76 | 22.38 ± 0.067 µM | 14.63 ± 0.412 µg/mL | 157 to 159 °C | 
C=CCc1ccc(OC(=O)c2ccc(O)cc2)c(OC)c1 [Compound 13b, 4-allyl-2-methoxyphenyl 4-hydroxybenzoate] |  |  |  | 12.5 ± 0.862 µg/mL | 10.77 ± 0.026 µg/mL | 9.183 ± 0.034 µM | 12.47 ± 0.014 µg/mL |  | 5.72 | 52.55 ± 0.038 µM | 11.74 ± 0.523 µg/mL | 178 to 179 °C | 
C=CCc1ccc(OC)c(OC)c1 [Methyl-eugenol] | 43.23 ± 0.054 µM | 7.12 ± 0.46 µM |  |  |  |  |  |  |  |  |  |  | 
Cc1ccc(C(C)C)cc1O [Carvacrol] | 23.42 ± 0.04 µM | 15.6 ± 0.49 µM |  |  |  |  |  |  |  |  |  |  | 
C=CCc1ccc(O)c(-c2cc(CC=C)ccc2O)c1 [Magnolol] |  |  | 35.4 µM |  |  |  |  | 49.3 µM |  |  |  |  | 
C=CCc1ccc(OCC(=O)NNC(=O)c2ccccc2S)c(OC)c1 [Compound 9b, N′-(2-(4-allyl-2-methoxyphenoxy)acetyl)-2-mercaptobenzohydrazide] |  |  |  | 9.393 ± 0.017 µg/mL | 9.912 ± 0.005 µg/mL | 27.85 ± 0.054 µM | 9.293 ± 0.028 µg/mL |  | 0.59 | 16.62 ± 0.004 µM | 8.095 ± 0.018 µg/mL | 210 to 211 °C | 
